# According to US8901118B2, “Compounds and methods for kinase modulation, and indications therefor” (Plexxikon Inc., priority 2010, dated 2014):
# Molecular target: T1, Flt-3 kinase (Homo sapiens, UniProt P36888)
# T1 sequence (P36888 27-993): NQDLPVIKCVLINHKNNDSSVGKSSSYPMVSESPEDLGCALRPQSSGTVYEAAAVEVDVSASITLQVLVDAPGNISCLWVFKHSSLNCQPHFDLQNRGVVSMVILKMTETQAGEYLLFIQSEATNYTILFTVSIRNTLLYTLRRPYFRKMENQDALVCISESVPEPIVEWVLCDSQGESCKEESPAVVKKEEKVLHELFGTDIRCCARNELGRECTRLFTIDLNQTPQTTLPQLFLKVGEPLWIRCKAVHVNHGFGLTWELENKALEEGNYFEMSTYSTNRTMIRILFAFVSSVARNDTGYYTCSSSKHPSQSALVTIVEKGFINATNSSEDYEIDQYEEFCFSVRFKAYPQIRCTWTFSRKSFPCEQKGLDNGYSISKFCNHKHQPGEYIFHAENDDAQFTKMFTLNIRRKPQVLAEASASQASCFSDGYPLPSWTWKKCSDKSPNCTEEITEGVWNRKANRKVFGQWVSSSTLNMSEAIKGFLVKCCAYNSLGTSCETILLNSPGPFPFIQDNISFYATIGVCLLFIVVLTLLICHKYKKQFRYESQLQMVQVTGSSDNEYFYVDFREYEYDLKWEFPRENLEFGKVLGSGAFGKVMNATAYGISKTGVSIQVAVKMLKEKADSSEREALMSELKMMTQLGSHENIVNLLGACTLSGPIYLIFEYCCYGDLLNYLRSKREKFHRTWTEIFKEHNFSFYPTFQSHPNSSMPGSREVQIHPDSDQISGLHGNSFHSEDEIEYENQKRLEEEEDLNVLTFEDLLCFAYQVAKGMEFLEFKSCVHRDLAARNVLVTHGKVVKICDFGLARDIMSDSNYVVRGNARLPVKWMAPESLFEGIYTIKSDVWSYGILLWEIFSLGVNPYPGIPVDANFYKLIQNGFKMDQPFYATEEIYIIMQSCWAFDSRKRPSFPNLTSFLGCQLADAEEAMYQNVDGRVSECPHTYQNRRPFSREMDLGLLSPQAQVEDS
# Experiment: Flt-3 kinase biochemical activity assay (AlphaScreen)
# Conditions: 100 μM ATP; read-out: Biochemical Inhibition IC50 Flt3
# Protocol: In one assay the biochemical activity IC50 values are determined with respect to inhibition of Flt-3 kinase activity, where inhibition of phosphorylation of a peptide substrate is measured as a function of compound concentration. Compounds to be tested, dissolved in DMSO (1 μL), are added to a white 384-well plate (Costar #3705). Working stocks of Flt-3 kinase (Invitrogen), biotin-(E4Y)10 substrate (Upstate Biotech, Cat#12-440), and ATP (Sigma, Cat#A-3377) are prepared in 25 mM Hepes pH 7.5, 5 mM MgCl2, 5 mM MnCl2, 1 mM DTT, and 0.01% Tween-20. All components are added to the 384-well plate for a final concentration of 1 ng/well Flt-3, 30 nM biotin-(E4Y)10 and 100 μM ATP in a volume of 20 μL. Each sample is at 5% DMSO. The plate is then incubated for 1 hour at room temperature. Just before use, working stocks of donor and acceptor beads from the AlphaScreen PY20 Detection Kit (PerkinElmer, Cat#676601M) are prepared in 25 mM Hepes pH 7.5, pH 7.4, 100 mM EDTA. 0.3% BSA. To stop the reaction, the plate is uncovered in the dark and 5 μL of Donor Beads solution (Streptavidin beads) is added to each well. The plate is incubated at room temperature for 20 minutes. Five microliters of Acceptor Beads solution (PY20 coated beads) are then added to each well. The final concentration of each bead is 10 μg/mL. The plates are incubated at room temperature for 60 minutes. Fluorescence signal is recorded on the Envision reader. Phosphorylated substrate results in binding of the PY20 antibody and association of the donor and acceptor beads such that signal correlates with kinase activity. The signal vs. compound concentration is used to determine the IC50.
row,SMILES,IC50
1,"Cc1cnc2[nH]cc(Cc3cnc(Nc4ccc(F)cc4)nc3)c2c1 [Compound P-3010, (4-Fluoro-phenyl)-[5-(5-methyl-1H-pyrrolo[2,3-b]pyridin-3-ylmethyl)-pyrimidin-2-yl]-amine]",< 100 nM
2,"Clc1cnc2[nH]cc(Cc3cnc(Nc4ccccc4Cl)nc3)c2c1 [Compound P-3015, (2-Chloro-phenyl)-[5-(5-chloro-1H-pyrrolo[2,3-b]pyridin-3-ylmethyl)-pyrimidin-2-yl]-amine]",< 100 nM
3,"Fc1nc(NC2CCC(F)(F)CC2)ccc1Cc1c[nH]c2ncc(Cl)cc12 [Compound P-3013, [5-(5-Chloro-1H-pyrrolo[2,3-b]pyridin-3-ylmethyl)-6-fluoro-pyridin-2-yl]-(4,4-difluoro-cyclohexyl)-amine]",> 1000 nM
4,"Clc1ccc(Nc2ncc(Cc3c[nH]c4ncc(Cl)cc34)cn2)cc1 [Compound P-3011, (4-Chloro-phenyl)-[5-(5-chloro-1H-pyrrolo[2,3-b]pyridin-3-ylmethyl)-pyrimidin-2-yl]-amine]",< 10 nM
5,"Fc1ccccc1Nc1ncc(Cc2c[nH]c3ncc(Cl)cc23)cn1 [Compound P-3014, [5-(5-Chloro-1H-pyrrolo[2,3-b]pyridin-3-ylmethyl)-pyrimidin-2-yl]-(2-fluoro-phenyl)-amine]",< 1000 nM
6,"Fc1ccc(Nc2ncc(Cc3c[nH]c4ncc(Cl)cc34)cn2)cc1 [Compound P-3012, [5-(5-Chloro-1H-pyrrolo[2,3-b]pyridin-3-ylmethyl)-pyrimidin-2-yl]-(4-fluoro-phenyl)-amine]",< 100 nM
